Source: ChEMBL document CHEMBL3046778, “Design, synthesis and pharmacological screening of hybrid molecules as antihypertensives” (Med Chem Res, 2011)

Experiments:
[1] = system: Rattus norvegicus; experiment: Toxicity in Rattus norvegicus Wistar (rat) assessed as Rmax at 30 mg/kg, ip measured after 30 min by ECG analysis (reference value: 0.08 +/- 0.008 mv); format: organism-based; design: dose 30 mg/kg, route intraperitoneal; details: in vivo, 0.5 h
[2] = system: Rattus norvegicus; experiment: Toxicity in Rattus norvegicus Wistar (rat) assessed as heart rate at 30 mg/kg, ip measured after 60 min by ECG analysis (reference value: 307.62 +/- 0.053 bpm); format: organism-based; design: dose 30 mg/kg, route intraperitoneal; details: in vivo, 1 h
[3] = system: Rattus norvegicus; experiment: Toxicity in Rattus norvegicus Wistar (rat) assessed as heart rate at 30 mg/kg, ip measured after 45 min by ECG analysis (reference value: 307.62 +/- 0.023 bpm); format: organism-based; design: dose 30 mg/kg, route intraperitoneal; details: in vivo, 0.75 h
[4] = system: Rattus norvegicus; experiment: Toxicity in Rattus norvegicus Wistar (rat) assessed as Rmax at 30 mg/kg, ip measured after 60 min by ECG analysis (reference value: 0.07 +/- 0.004 mv); format: organism-based; design: dose 30 mg/kg, route intraperitoneal; details: in vivo, 1 h
[5] = system: Rattus norvegicus; experiment: Toxicity in Rattus norvegicus Wistar (rat) assessed as Rmax at 30 mg/kg, ip measured after 45 min by ECG analysis (reference value: 0.08 +/- 0.008 mv); format: organism-based; design: dose 30 mg/kg, route intraperitoneal; details: in vivo, 0.75 h
[6] = system: Rattus norvegicus; experiment: Toxicity in Rattus norvegicus Wistar (rat) assessed as heart rate at 30 mg/kg, ip measured after 30 min by ECG analysis (reference value: 307.62 +/- 0.439 bpm); format: organism-based; design: dose 30 mg/kg, route intraperitoneal; details: in vivo, 0.5 h
[7] = system: Rattus norvegicus; experiment: Toxicity in Rattus norvegicus Wistar (rat) assessed as heart rate at 40 mg/kg, ip measured after 60 min by ECG analysis (reference value: 307.62 +/- 0.053 bpm); format: organism-based; design: dose 40 mg/kg, route intraperitoneal; details: in vivo, 1 h
[8] = system: Rattus norvegicus; experiment: Toxicity in Rattus norvegicus Wistar (rat) assessed as Rmax at 40 mg/kg, ip measured after 30 min by ECG analysis (reference value: 0.08 +/- 0.008 mv); format: organism-based; design: dose 40 mg/kg, route intraperitoneal; details: in vivo, 0.5 h
[9] = system: Heart; experiment: Inhibition of force of contraction in Hoplobatrachus tigerinus (frog) heart at log dose 2.3; format: functional
[10] = system: Heart; experiment: Inhibition of force of contraction in Hoplobatrachus tigerinus (frog) heart at log dose 2.9; format: functional
[11] = system: Rattus norvegicus; experiment: Toxicity in Rattus norvegicus Wistar (rat) assessed as heart rate at 40 mg/kg, ip measured after 45 min by ECG analysis (reference value: 307.62 +/- 0.023 bpm); format: organism-based; design: dose 40 mg/kg, route intraperitoneal; details: in vivo, 0.75 h
[12] = system: Heart; experiment: Inhibition of force of contraction in Hoplobatrachus tigerinus (frog) heart at log dose 2.6; format: functional
[13] = system: Rattus norvegicus; experiment: Toxicity in Rattus norvegicus Wistar (rat) assessed as Rmax at 40 mg/kg, ip measured after 60 min by ECG analysis (reference value: 0.07 +/- 0.004 mv); format: organism-based; design: dose 40 mg/kg, route intraperitoneal; details: in vivo, 1 h
[14] = system: Heart; experiment: Inhibition of force of contraction in Hoplobatrachus tigerinus (frog) heart at log dose 2; format: functional
[15] = system: Rattus norvegicus; experiment: Toxicity in Rattus norvegicus Wistar (rat) assessed as heart rate at 40 mg/kg, ip measured after 30 min by ECG analysis (reference value: 307.62 +/- 0.439 bpm); format: organism-based; design: dose 40 mg/kg, route intraperitoneal; details: in vivo, 0.5 h
[16] = system: Rattus norvegicus; experiment: Toxicity in Rattus norvegicus Wistar (rat) assessed as Rmax at 40 mg/kg, ip measured after 45 min by ECG analysis (reference value: 0.08 +/- 0.008 mv); format: organism-based; design: dose 40 mg/kg, route intraperitoneal; details: in vivo, 0.75 h
[17] = system: Rattus norvegicus; experiment: Toxicity in Rattus norvegicus Wistar (rat) assessed as heart rate at 10 mg/kg, ip measured after 60 min by ECG analysis (reference value: 307.62 +/- 0.053 bpm); format: organism-based; design: dose 10 mg/kg, route intraperitoneal; details: in vivo, 1 h
[18] = system: Rattus norvegicus; experiment: Toxicity in Rattus norvegicus Wistar (rat) assessed as Rmax at 10 mg/kg, ip measured after 30 min by ECG analysis (reference value: 0.08 +/- 0.008 mv); format: organism-based; design: dose 10 mg/kg, route intraperitoneal; details: in vivo, 0.5 h
[19] = system: Rattus norvegicus; experiment: Toxicity in Rattus norvegicus Wistar (rat) assessed as Rmax at 10 mg/kg, ip measured after 45 min by ECG analysis (reference value: 0.08 +/- 0.008 mv); format: organism-based; design: dose 10 mg/kg, route intraperitoneal; details: in vivo, 0.75 h
[20] = system: Rattus norvegicus; experiment: Toxicity in Rattus norvegicus Wistar (rat) assessed as heart rate at 10 mg/kg, ip measured after 30 min by ECG analysis (reference value: 307.62 +/- 0.035 bpm); format: organism-based; design: dose 10 mg/kg, route intraperitoneal; details: in vivo, 0.5 h
[21] = system: Rattus norvegicus; experiment: Toxicity in Rattus norvegicus Wistar (rat) assessed as heart rate at 10 mg/kg, ip measured after 45 min by ECG analysis (reference value: 307.62 +/- 0.023 bpm); format: organism-based; design: dose 10 mg/kg, route intraperitoneal; details: in vivo, 0.75 h
[22] = system: Rattus norvegicus; experiment: Toxicity in Rattus norvegicus Wistar (rat) assessed as Rmax at 10 mg/kg, ip measured after 60 min by ECG analysis (reference value: 0.07 +/- 0.004 mv); format: organism-based; design: dose 10 mg/kg, route intraperitoneal; details: in vivo, 1 h
[23] = system: Heart; experiment: Inhibition of force of contraction in Hoplobatrachus tigerinus (frog) heart at log dose 3; format: functional
[24] = system: Rattus norvegicus; experiment: Toxicity in Rattus norvegicus Wistar (rat) assessed as heart rate at 50 mg/kg, ip measured after 60 min by ECG analysis (reference value: 307.62 +/- 0.053 bpm); format: organism-based; design: dose 50 mg/kg, route intraperitoneal; details: in vivo, 1 h
[25] = system: Rattus norvegicus; experiment: Toxicity in Rattus norvegicus Wistar (rat) assessed as Rmax at 50 mg/kg, ip measured after 60 min by ECG analysis (reference value: 0.07 +/- 0.004 mv); format: organism-based; design: dose 50 mg/kg, route intraperitoneal; details: in vivo, 1 h
[26] = system: Rattus norvegicus; experiment: Toxicity in Rattus norvegicus Wistar (rat) assessed as heart rate at 50 mg/kg, ip measured after 30 min by ECG analysis (reference value: 307.62 +/- 0.439 bpm); format: organism-based; design: dose 50 mg/kg, route intraperitoneal; details: in vivo, 0.5 h
[27] = system: Rattus norvegicus; experiment: Toxicity in Rattus norvegicus Wistar (rat) assessed as Rmax at 50 mg/kg, ip measured after 30 min by ECG analysis (reference value: 0.08 +/- 0.008 mv); format: organism-based; design: dose 50 mg/kg, route intraperitoneal; details: in vivo, 0.5 h
[28] = system: Rattus norvegicus; experiment: Toxicity in Rattus norvegicus Wistar (rat) assessed as Rmax at 50 mg/kg, ip measured after 45 min by ECG analysis (reference value: 0.08 +/- 0.008 mv); format: organism-based; design: dose 50 mg/kg, route intraperitoneal; details: in vivo, 0.75 h
[29] = system: Rattus norvegicus; experiment: Toxicity in Rattus norvegicus Wistar (rat) assessed as heart rate at 50 mg/kg, ip measured after 45 min by ECG analysis (reference value: 307.62 +/- 0.023 bpm); format: organism-based; design: dose 50 mg/kg, route intraperitoneal; details: in vivo, 0.75 h

| Structure (SMILES) | Activity [7] [bpm] | Activity [8] [mV] | inhibition (INH) [9] [%] | inhibition (INH) [10] [%] | Activity [11] [bpm] | inhibition (INH) [12] [%] | Activity [13] [mV] | inhibition (INH) [14] [%] | Activity [15] [bpm] | Activity [16] [mV] | inhibition (INH) [23] [%] | further results |
| --- | --- | --- | --- | --- | --- | --- | --- | --- | --- | --- | --- | --- |
| COC(=O)C1=C(C)NC(C)=C(C(=O)OC)C1c1ccccc1[N+](=O)[O-] [NIFEDIPINE] | – | – | – | – | – | – | – | – | – | – | – | Activity [1]: 0.04 mV; Activity [2]: 521.73 bpm; Activity [3]: 425.61 bpm; Activity [4]: 0.15 mV; Activity [5]: 0.1 mV; Activity [6]: 363.63 bpm |
| CCOC(=O)C1=C(C)N(CC(O)COc2ccc(/C=N/C(=S)Nc3ccc(Cl)cc3)cc2)C(=S)NC1c1cccc([N+](=O)[O-])c1 (stereo not given) | 260.42 | 0.03 | 20 | 25 | 299.78 | 4 | 0.07 | 13 | 323.85 | 0.01 | – | – |
| CC(C)NCC(O)COc1cccc2ccccc12 (stereo not given) [PROPRANOLOL] | – | – | – | – | – | – | – | – | – | – | – | Activity [17]: 333 bpm; Activity [18]: 0.04 mV; Activity [19]: 0.02 mV; Activity [20]: 400 bpm; Activity [21]: 333 bpm; Activity [22]: 0.13 mV |
| CCOC(=O)C1=C(C)N(CC(O)COc2ccc(/C=N/C(=S)Nc3ccc(OC)cc3)cc2)C(=S)NC1c1cccc([N+](=O)[O-])c1 (stereo not given) | 300.22 | 0.04 | 43 | 50 | 300.22 | 43 | 0.14 | 50 | 315.87 | 0.07 | – | – |
| CCOC(=O)C1=C(C)N(CC(O)COc2ccc(/C=N/C(=S)Nc3ccc(Cl)cc3)cc2)C(=S)NC1c1ccccc1[N+](=O)[O-] (stereo not given) | 315.25 | 0.08 | 16 | 18 | 324.05 | 18 | 0.09 | 23 | 324.05 | 0.02 | 50 | – |
| CCOC(=O)C1=C(C)N(CC(O)COc2ccc(/C=N/C(=S)Nc3ccc(C(=O)O)cc3)cc2)C(=S)NC1c1cccc([N+](=O)[O-])c1 (stereo not given) | – | – | 5 | 30 | – | 25 | – | 23 | – | – | – | Activity [24]: 399.26 bpm; Activity [25]: 0.12 mV; Activity [26]: 399.26 bpm; Activity [27]: 0.03 mV; Activity [28]: 0.05 mV; Activity [29]: 399.26 bpm |
| CCOC(=O)C1=C(C)N(CC(O)COc2ccc(/C=N/C(=S)Nc3ccc(OC)cc3)cc2)C(=S)NC1c1ccccc1[N+](=O)[O-] (stereo not given) | 266.41 | 0.09 | 50 | 66 | 266.41 | 50 | 0.13 | 30 | 272.19 | 0.02 | – | – |
| CCOC(=O)C1=C(C)N(CC(O)COc2ccc(/C=N/C(=S)Nc3ccccc3OC)cc2)C(=S)NC1c1ccccc1[N+](=O)[O-] (stereo not given) | 266.08 | 0.1 | 38 | 20 | 266.08 | 20 | 0.13 | 25 | 266.08 | 0.05 | 31 | – |
| CCOC(=O)C1=C(C)N(CC(O)COc2ccc(/C=N/C(=S)Nc3ccccc3OC)cc2)C(=S)NC1c1cccc([N+](=O)[O-])c1 (stereo not given) | 215.7 | 0.08 | 10 | 22 | 214.17 | 23 | 0.19 | 32 | 226.62 | 0.03 | 36 | – |
